One data set deals with PDGFRα (Homo sapiens (Human), UniProt P16234). The data set is described as follows: PDGFRα kinase enzyme assay (Promega PDGFRα Kinase Enzyme System, ADP-Glo). It counts as biochemical. To be noted: 150 uM ATP. The essentials: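 Read-out was ADP-Glo: remaining ATP depleted, ADP converted to luminescence and compared with a standard curve.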
A general note: ADP-Glo first removes unused ATP, then detects ADP through luciferase.

For data set [1], the system named is GPR17+ cells (newly differentiated oligodendrocytes). The data set is described as follows: In vivo OPC differentiation, GPR17+ cells in brain. To be noted: for In vivo GPR17+ cells, GPR17 Fold Induction (Over Vehicle): adult female C57BL/6 mice, PO or IP, treatment period 1-3 days, entire brain, fold change over vehicle treated animals.
Experimental: The ability of newly constructed compounds to drive OPC differentiation and myelination in vivo was tested. The ability of these compounds to drive OPC differentiation in vivo was tested using GPR17 as an indicator of newly differentiated oligodendrocytes.
Compounds were delivered PO or IP either QD or BID. Mice were dosed once, transiently, or continuously through the treatment period, which ranged from 1-3 days.
Mice were euthanized by isoflurane exposure and transcardially perfused with 14 mL of PBS (Sigma Cat #P4417-50TAB) followed by 22 mL of 3.2% paraformaldehyde in PBS. The brains were removed and postfixed for a minimum of 24 hours in 20 mL of 3.2% paraformaldehyde.
50-micron floating sections were cut using a Leica VT1200S vibratome. Every 24th section, extending through the antero-posterior extent of the brain, was stained. The selected brain sections were washed three times in PBS for 3 minutes each. The floating sections were incubated in the primary antibodies (see Table 10, below) diluted in blocking solution overnight at room temperature on a shaker. […] The next day, the sections were again washed three times in PBS for 3 minutes each and then incubated in the secondary antibodies diluted in blocking solution for 2 hours at room temperature on a shaker. After incubation, the sections were washed three times in PBS for 3 minutes each and mounted on a slide to be imaged using the Olympus Slide Scanner VS200.
The images were analyzed using a custom protocol developed using Visiopharm software to count GPR17+ cells. Cells were considered GPR17+ if they contained an Olig2 positive nucleus, and intense GPR 17 staining that filled their processes. Statistical analysis was done using one-way ANOVA with multiple comparison in GraphPad Prism software.
The subject of data set [2] is Oligodendrocyte progenitor cells (OPCs). The data set is described as follows: In vitro OPC differentiation assay, GPR17 expression (immunocytochemistry). To be noted: 72 hours; for GPR17 Fold Induction (Over Vehicle; 3 μM): 3 μM (10× concentration, final 0.3 μM), fold change over vehicle; for GPR17 Fold Induction (Over Vehicle; 5 μM): primary rat OPCs, 5 μM (10x; final 0.5 μM per method), percent GPR17+ cells as fold change over vehicle.

Where [3] appears, read: 11-point dose response, 10,000 nM to 0.169 nM, BLQ = below limit of quantitation, read-out: IC50 Values on PDGFRα Kinase Inhibition, IC50.
Setting [4] is: Mus musculus, po, 24 h, read-out: GPR17 Fold Induction (Over Vehicle).
Where [5] appears, read: 11-point dose response, 10,000 nM to 0.169 nM, BLQ = below limit of quantitation.
[6] abbreviates: 20 ng purified PDGFRα, Poly (Glu4Tyr1) substrate, two hours, 11-point dose response, read-out: IC50 Values on PDGFRα Kinase Inhibition.

pIC50: −log10 of the molar value. Structures can show the parent of a compound that is named as a salt. Where two headings read alike, the source gives them in different places.

Sequence of PDGFRα (P16234 24-1089): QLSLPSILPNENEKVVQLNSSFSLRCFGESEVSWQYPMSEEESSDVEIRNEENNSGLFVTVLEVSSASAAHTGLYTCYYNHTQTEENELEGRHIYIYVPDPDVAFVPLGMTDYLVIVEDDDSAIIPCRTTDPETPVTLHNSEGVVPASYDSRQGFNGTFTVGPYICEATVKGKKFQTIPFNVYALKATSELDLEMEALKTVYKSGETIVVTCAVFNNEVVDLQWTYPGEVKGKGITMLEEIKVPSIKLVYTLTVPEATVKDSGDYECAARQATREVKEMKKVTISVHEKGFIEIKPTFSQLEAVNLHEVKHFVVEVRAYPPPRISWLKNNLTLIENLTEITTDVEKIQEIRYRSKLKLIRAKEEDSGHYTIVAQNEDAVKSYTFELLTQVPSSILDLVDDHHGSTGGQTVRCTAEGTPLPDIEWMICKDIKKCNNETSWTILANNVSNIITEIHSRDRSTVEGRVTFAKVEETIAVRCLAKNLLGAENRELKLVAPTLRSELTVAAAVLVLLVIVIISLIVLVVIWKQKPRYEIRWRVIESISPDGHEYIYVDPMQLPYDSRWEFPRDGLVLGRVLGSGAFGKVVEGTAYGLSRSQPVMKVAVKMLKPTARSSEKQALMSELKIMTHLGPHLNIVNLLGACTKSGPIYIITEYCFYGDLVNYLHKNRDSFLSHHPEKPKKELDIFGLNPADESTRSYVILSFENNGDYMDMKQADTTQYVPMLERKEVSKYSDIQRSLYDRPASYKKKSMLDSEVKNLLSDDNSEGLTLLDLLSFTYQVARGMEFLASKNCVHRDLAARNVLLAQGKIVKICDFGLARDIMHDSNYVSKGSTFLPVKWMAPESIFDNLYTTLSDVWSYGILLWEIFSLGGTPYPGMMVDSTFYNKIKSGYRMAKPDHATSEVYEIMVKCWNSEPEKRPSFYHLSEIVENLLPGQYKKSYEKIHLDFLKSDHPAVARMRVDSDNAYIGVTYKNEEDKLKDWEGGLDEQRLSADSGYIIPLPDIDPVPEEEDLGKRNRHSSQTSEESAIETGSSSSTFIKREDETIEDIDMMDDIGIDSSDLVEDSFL

Usually pIC50 stands for the negative decadic logarithm of the IC50, by convention in mol/L. In the case of `Cn1cc(-c2ccc3c(N4CCN(c5ncc(C(O)C6CCOCC6)cn5)CC4)cnn3c2)cn1` (stereo not shown) [Compound 69, (2-{4-[6-(1-methyl-1H-pyrazol-4-yl)pyrazolo[1,5-a]pyridin-3-yl]piperazin-1-yl}pyrimidin-5-yl)(tetrahydro-2H-pyran-4-yl)methanol], at PDGFRα (setting [3]), the pIC50 was 6.81. Besides, in data set [1] (setting [4]), the fold induction at 3 mg/kg came to 1.09 and the fold induction at 30 mg/kg came out at 2.34. Moreover, the “GPR17 Fold Induction (Over Vehicle; 3 μM)” value in data set [2] is 4.53.
In the case of `Cn1cc(-c2ccc3c(N4CCN(c5ncc([S+]([O-])c6ccccc6)cn5)CC4)cnn3c2)cn1` (stereo not shown) [Compound 187, 6-(1-methyl-1H-pyrazol-4-yl)-3-(4-(5-(phenylsulfinyl)pyrimidin-2-yl)piperazin-1-yl)pyrazolo[1,5-a]pyridine], the pIC50 at PDGFRα (setting [3]) was 6.81. In data set [1] (setting [4]), the fold induction at 3 mg/kg was 1.32. Moreover, in data set [2], the “GPR17 Fold Induction (Over Vehicle; 3 μM)” value is reported as 4.97.
For the molecule `Cn1cc(-c2ccc3c(N4CCN(C(=O)NCc5ccccc5)CC4)cnn3c2)cn1` [Compound 161, N-benzyl-4-(6-(1-methyl-1H-pyrazol-4-yl)pyrazolo[1,5-a]pyridin-3-yl)piperazine-1-carboxamide], the pIC50 on PDGFRα (setting [3]) is 5.68. Further, the fold induction at 3 mg/kg in data set [1] (setting [4]) is 1.81. Further, the “GPR17 Fold Induction (Over Vehicle; 3 μM)” value in data set [2] was 3.97.
For the molecule `Cn1cc(-c2ccc3c(N4CCN(C(=O)NCc5ccc(C(F)(F)F)cc5)CC4)cnn3c2)cn1` [Compound 279, 4-[6-(1-methyl-1H-pyrazol-4-yl)pyrazolo[1,5-a]pyridin-3-yl]-N-[4-(trifluoromethyl)benzyl]piperazine-1-carboxamide], on PDGFRα (setting [3]), the pIC50 was 7.23. Further, the fold induction at 3 mg/kg in data set [1] (setting [4]) was 6.33. The “GPR17 Fold Induction (Over Vehicle; 3 μM)” value in data set [2] is reported as 3.62.
For `Cc1ccc(C(C)OC(=O)N2CCN(c3cnn4cc(-c5cnn(C)c5)ccc34)CC2)nc1` (stereo not shown) [Compound 261, 1-(5-methylpyridin-2-yl)ethyl 4-[6-(1-methyl-1H-pyrazol-4-yl)pyrazolo[1,5-a]pyridin-3-yl]piperazine-1-carboxylate] the same measures were 7.77, 3.71 and 5.04.
Take `C[C@@H](OC(=O)N1CCN(c2cnc3cc(-c4cnn(C)c4)cnn23)CC1)c1ccc(C(F)(F)F)cc1` [Compound 283, (R)-1-(4-(trifluoromethyl)phenyl)ethyl 4-(7-(1-methyl-1H-pyrazol-4-yl)imidazo[1,2-b]pyridazin-3-yl)piperazine-1-carboxylate]: the “IC50 Values on PDGFRα Kinase Inhibition, IC50 (nM)” value on PDGFRα (setting [5]) is reported as “BLQ”. Also, the fold induction at 3 mg/kg in data set [1] (setting [4]) is 6.8. For the same molecule, the “GPR17 Fold Induction (Over Vehicle; 3 μM)” value in data set [2] came to 5.90.
On to `Cc1ccc(Cc2cnc(N3CCN(c4cnn5cc(-c6cnn(C)c6)ccc45)CC3)nc2)cc1` [Compound 67, 3-{4-[5-(4-methylbenzyl)pyrimidin-2-yl]piperazin-1-yl}-6-(1-methyl-1H-pyrazol-4-yl)pyrazolo[1,5-a]pyridine], for which the pIC50 on PDGFRα (setting [3]) is 6.11. The fold induction at 10 mg/kg in data set [1] (setting [4]) worked out at 9.4. Moreover, in data set [2], the “GPR17 Fold Induction (Over Vehicle; 3 μM)” value worked out at 3.41.
Take `COc1ccc(N2Cc3cnc(Nc4ccc(F)cc4)nc3N([C@@H]3CC[C@@H](O)C3)C2=O)cc1` [RO4396686, reference compound]: the negative logarithm of the IC50 (pIC50) at PDGFRα (setting [6]) was 6.43. In data set [1], the “In vivo GPR17+ cells, GPR17 Fold Induction (Over Vehicle)” value was 9.23. For the same molecule, the “GPR17 Fold Induction (Over Vehicle; 5 μM)” value in data set [2] came out at 3.61.
Take `C[C@@H](OC(=O)N1CCN(c2cnn3cc(-c4cnn(C)c4)ccc23)CC1)c1ccc(OC(F)(F)F)cc1` [Compound 268, (1R)-1-[4-(trifluoromethoxy)phenyl]ethyl 4-[6-(1-methyl-1H-pyrazol-4-yl)pyrazolo[1,5-a]pyridin-3-yl]piperazine-1-carboxylate]: the pIC50 on PDGFRα (setting [3]) is 7.93. Moreover, in data set [1] (setting [4]), the fold induction at 3 mg/kg was 7.02. Also, the “GPR17 Fold Induction (Over Vehicle; 3 μM)” value in data set [2] is recorded as 5.57.
Consider `COc1cc2c(Oc3ccc4[nH]c(C)cc4c3F)ccnc2cc1OCC1(N)CC1` [Anlotinib HCl, anlotinib HCl, reference compound], for which the negative-log IC50 (pIC50) at PDGFRα (setting [6]) was 5.87. The “In vivo GPR17+ cells, GPR17 Fold Induction (Over Vehicle)” value in data set [1] was 17.89. Further, the “GPR17 Fold Induction (Over Vehicle; 5 μM)” value in data set [2] was found to be 6.58.
`C[C@@H](OC(=O)N1CCN(c2cnn3cc(-c4cnn(C)c4)ccc23)CC1)c1ccc(F)cc1` [Compound 77, (1R)-1-(4-Fluorophenyl)ethyl 4-[6-(1-methyl-1H-pyrazol-4-yl)pyrazolo[1,5-a]pyridin-3-yl]piperazine-1-carboxylate]: on PDGFRα (setting [5]), the “IC50 Values on PDGFRα Kinase Inhibition, IC50 (nM)” value is on record as “BLQ”. For the same molecule, the fold induction at 3 mg/kg in data set [1] (setting [4]) amounted to 8.64. The “GPR17 Fold Induction (Over Vehicle; 3 μM)” value in data set [2] worked out at 7.12.
Regarding `C[C@@H](OC(=O)N1CCN(c2cnn3cc(-c4cnn(C)c4)ccc23)CC1)c1ccc(Cl)cc1Cl` [Compound 270, (1R)-1-(2,4-dichlorophenyl)ethyl 4-[6-(1-methyl-1H-pyrazol-4-yl)pyrazolo[1,5-a]pyridin-3-yl]piperazine-1-carboxylate], the pIC50 on PDGFRα (setting [3]) was 6.80. In addition, in data set [1] (setting [4]), the fold induction at 3 mg/kg is 1.92. Besides, the “GPR17 Fold Induction (Over Vehicle; 3 μM)” value in data set [2] is listed as 7.71.
`Cn1cc(-c2cnc3c(N4CCN(C(=O)OC(C)(C)C)CC4)cnn3c2)cn1` [Compound 2, tert-butyl 4-[6-(1-methyl-1H-pyrazol-4-yl)pyrazolo[1,5-a]pyrimidin-3-yl]piperazine-1-carboxylate]: the pIC50 on PDGFRα (setting [3]) is 5.84. Also, the fold induction at 3.3 mg/kg in data set [1] (setting [4]) turned out to be 1.13. Moreover, the “GPR17 Fold Induction (Over Vehicle; 3 μM)” value in data set [2] is 1.46.
On to `CN1CCN(c2ccc(Nc3ncc4cc(C#N)c(=O)n(C5CCCC5)c4n3)cc2)CC1` [ON123300, reference compound], for which the pIC50 at PDGFRα (setting [6]) is 7.13. Further, the “In vivo GPR17+ cells, GPR17 Fold Induction (Over Vehicle)” value in data set [1] is 1.49. Besides, in data set [2], the “GPR17 Fold Induction (Over Vehicle; 5 μM)” value was determined as 6.72.
With `C[C@@H](OC(=O)N1CCN(c2cnn3cc(-c4cnn(C)c4)ccc23)CC1)c1cccc(F)c1` [Compound 79, (1R)-1-(3-Fluorophenyl)ethyl 4-[6-(1-methyl-1H-pyrazol-4-yl)pyrazolo[1,5-a]pyridin-3-yl]piperazine-1-carboxylate], on PDGFRα (setting [3]), the pIC50 is 7.79. Moreover, the fold induction at 3 mg/kg in data set [1] (setting [4]) stood at 2.81. In data set [2], the “GPR17 Fold Induction (Over Vehicle; 3 μM)” value is on record as 5.46.
For `Cn1cc(-c2ccc3c(N4CCN(c5ncc(CC6CCCCO6)cn5)CC4)cnn3c2)cn1` (stereo not shown) [Compound 184, 6-(1-methyl-1H-pyrazol-4-yl)-3-(4-(5-((tetrahydro-2H-pyran-2-yl)methyl)pyrimidin-2-yl)piperazin-1-yl)pyrazolo[1,5-a]pyridine] the same measures were 6.90, 1.07 and 9.26.
As to `Cn1cc(-c2ccc3c(N4CCN(c5ncc(Cc6ccccc6)o5)CC4)cnn3c2)cn1` [Compound 247, 5-benzyl-2-(4-(6-(1-methyl-1H-pyrazol-4-yl)pyrazolo[1,5-a]pyridin-3-yl)piperazin-1-yl)oxazole], the pIC50 on PDGFRα (setting [3]) is 5.75. Besides, the fold induction at 30 mg/kg in data set [1] (setting [4]) was found to be 8.43. The “GPR17 Fold Induction (Over Vehicle; 3 μM)” value in data set [2] is listed as 2.45.
For the molecule `CC(C)(C)OC(=O)N1CCN(c2cnn3cc(-c4cccnc4)ccc23)CC1` [Compound 217, tert-butyl 4-(6-(pyridin-3-yl)pyrazolo[1,5-a]pyridin-3-yl)piperazine-1-carboxylate], at PDGFRα (setting [3]), the pIC50 was 6.23. For the same molecule, the fold induction at 3 mg/kg in data set [1] (setting [4]) was found to be 0.97. Besides, in data set [2], the “GPR17 Fold Induction (Over Vehicle; 3 μM)” value amounted to 1.69.
For `Cn1cc(-c2ccc3c(N4CCN(c5ccc(C(O)c6ccccc6)nc5)CC4)cnn3c2)cn1` (stereo not shown) [Compound 241, (5-(4-(6-(1-methyl-1H-pyrazol-4-yl)pyrazolo[1,5-a]pyridin-3-yl)piperazin-1-yl)pyridin-2-yl)(phenyl)methanol] the same measures were 6.01, 6.43 and 16.27.
As to `Cn1cc(-c2ccc3c(N4CCN(S(=O)(=O)N5CCCCC5)CC4)cnn3c2)cn1` [Compound 157, 6-(1-methyl-1H-pyrazol-4-yl)-3-(4-(piperidin-1-ylsulfonyl)piperazin-1-yl)pyrazolo[1,5-a]pyridine], on PDGFRα (setting [3]), the pIC50 was 5.68. The fold induction at 30 mg/kg in data set [1] (setting [4]) came to 1.91. Besides, in data set [2], the “GPR17 Fold Induction (Over Vehicle; 3 μM)” value turned out to be 2.80.
For `COc1cc2c(cc1OC)-c1[nH]nc(Nc3cccc(F)c3)c1C2` [JNJ-10198409, JNJ=10198409, reference compound], at PDGFRα (setting [6]), the pIC50 was below 5.00. Moreover, in data set [1], the “In vivo GPR17+ cells, GPR17 Fold Induction (Over Vehicle)” value is 1.16. For the same molecule, in data set [2], the “GPR17 Fold Induction (Over Vehicle; 5 μM)” value was found to be 3.87.
For `Cc1ccc(C(C)OC(=O)N2CCN(c3cnn4cc(-c5cnn(C)c5)ccc34)CC2)cn1` (stereo not shown) [Compound 317, 1-(6-methylpyridin-3-yl)ethyl 4-[6-(1-methyl-1H-pyrazol-4-yl)pyrazolo[1,5-a]pyridin-3-yl]piperazine-1-carboxylate], on PDGFRα (setting [3]), the pIC50 is 7.76. For the same molecule, the fold induction at 3 mg/kg in data set [1] (setting [4]) was 2.97. Also, the “GPR17 Fold Induction (Over Vehicle; 3 μM)” value in data set [2] came to 12.64.
Taken in the same sequence, the figures for `Cn1cc(-c2ccc3c(N4CCN(c5ccc(Cc6ccccc6)nc5)CC4)cnn3c2)cn1` [Compound 151, 3-(4-(6-benzylpyridin-3-yl)piperazin-1-yl)-6-(1-methyl-1H-pyrazol-4-yl)pyrazolo[1,5-a]pyridine] were 5.56, 1.73 and 20.40.

The values are drawn from patent US20250129067A1 (Progentos Therapeutics, Inc., priority 2021, published 2025).
